From US20260335277A1, “CHLOROTONIL DERIVATIVES” (priority 2023, published 2026)
Converted amounts (≈) assume the structure as drawn. Read-outs that look alike come from different tables or passages of the source.

How the values were obtained:
S. aureus Newman = experiment: MIC testing (broth microdilution, EUCAST); assay type: cell-based; conditions: for MIC: Staphylococcus aureus, NEWMAN
Procedure: (§1) Minimal inhibitory concentration (MIC) of the compounds in the present invention was determined using broth microdilution performed according to EUCAST guidelines (ISO20776-1:2019). S. aureus ATCC29213 and E. faecalis ATCC29212 served as quality control strains.

E. faecalis ATCC-29212 = experiment: MIC testing (broth microdilution, EUCAST); assay type: cell-based; conditions: for MIC: Enterococcus faecalis, ATCC29212, E. faecalis ATCC-29212; for MIC E. faecalis: E. faecalis ATCC-29212
Procedure: as §1

[1] = tested on: S. aureus N315 (methicillin-resistant, MRSA); experiment: MIC testing (broth microdilution, EUCAST); assay type: cell-based; conditions: for MIC: Staphylococcus aureus, MRSA
Procedure: as §1

S. epidermidis DSM-28765 = experiment: MIC testing (broth microdilution, EUCAST); assay type: cell-based; conditions: for MIC: Staphylococcus epidermidis, DSM28765, S. epidermidis DSM-28765, read-out: MIC S. epiderm.; for MIC S. epiderm.: S. epidermidis DSM-28765
Procedure: as §1

[2] = tested on: E. faecium DSM-17050 (vancomycin-resistant, VRE); experiment: MIC testing (broth microdilution, EUCAST); assay type: cell-based; conditions: for MIC: Enterococcus faecium
Procedure: as §1

E. faecium DSM-20477 = experiment: MIC testing (broth microdilution, EUCAST); assay type: cell-based; conditions: for MIC: Enterococcus faecium, DSM20477, E. faecium DSM-20477; for MIC E. faecium: E. faecium DSM-20477
Procedure: as §1

zebrafish larvae = experiment: Toxicity in zebrafish larvae (MTC / IC50); assay type: in vivo; conditions: for IC50 in zebrafish larvae: exposed 3 days post fertilization, monitored 48 h; for Selectivity Index S. aureus: zebrafish IC50 / MIC S. aureus Newman
Procedure: (§2) For toxicity screening, zebrafish larvae were exposed three days post fertilization and monitored for 48 h until five days post fertilization. All malformations and pathophysiological phenotypes were noted and used to determine the inhibitory concentration (IC50) of the respective derivative against zebrafish larvae. The selectivity index (SI) was then calculated using the IC50 and the MIC of either S. aureus or P. falciparum 3D7.

[3] = Toxicity in zebrafish larvae (MTC / IC50); assay type: in vivo; conditions: zebrafish, zebrafish larvae
Procedure: as §2

CC1=C[C@@H](C)[C@H]2[C@@H]3C(=O)[C@@](F)(Cl)C(=O)[C@H](C)C(=O)O[C@@H](C)/C=C/C=C\[C@@H](C)[C@@H]3C=C[C@@H]2C1 [ChA-4′F]
MIC (S. aureus Newman): 0.8 µg/mL (≈ 1.73 µM) | MIC (E. faecalis ATCC-29212): 1.6 µg/mL (≈ 3.46 µM) | MIC [1]: 1.6 µg/mL (≈ 3.46 µM) | MIC (S. epidermidis DSM-28765): > 6.4 µg/mL | MIC [2]: 1.6 µg/mL (≈ 3.46 µM) | MIC (E. faecium DSM-20477): 0.8 µg/mL (≈ 1.73 µM)

CC1=C[C@@H](C)[C@H]2[C@@H]3C(=O)[C@@](C)(Cl)C(=O)[C@H](C)C(=O)O[C@@H](C)/C=C/C=C\[C@@H](C)[C@@H]3C=C[C@@H]2C1 [ChA-4′Me]
MIC (S. aureus Newman): 1.6 µg/mL (≈ 3.49 µM) | MIC (E. faecalis ATCC-29212): 1.6 µg/mL (≈ 3.49 µM) | MIC [1]: 1.6 µg/mL (≈ 3.49 µM) | MIC (S. epidermidis DSM-28765): > 1.6 µg/mL | MIC [2]: 0.8 µg/mL (≈ 1.74 µM) | MIC (E. faecium DSM-20477): 0.8 µg/mL (≈ 1.74 µM)

C=C1C[C@H]2C=C[C@@H]3[C@@H](C(=O)C(Cl)(Cl)C(=O)[C@H](C)C(=O)O[C@@H](C)/C=C/C=C\[C@H]3C)[C@@H]2[C@H](C)C1Cl (some centres unmarked) [ChA-9′Cl]
MIC (S. aureus Newman): 0.4 µg/mL (≈ 0.778 µM) | MIC (E. faecalis ATCC-29212): 0.4 µg/mL (≈ 0.778 µM) | MIC [1]: 0.4 µg/mL (≈ 0.778 µM) | MIC (S. epidermidis DSM-28765): 0.4 µg/mL (≈ 0.778 µM) | MIC [2]: 0.2 µg/mL (≈ 0.389 µM) | MIC (E. faecium DSM-20477): 0.2 µg/mL (≈ 0.389 µM)

CC1=CC(C)C2C(C=CC3C(C)C=CC=CC(C)OC(=O)C(C)C(=O)C(Cl)=C(O)C32)C1 (centres unmarked) [ChB1, reference compound]
MIC S. aureus (S. aureus Newman): 0.2 µg/mL (≈ 0.449 µM) | MIC E. faecalis (E. faecalis ATCC-29212): 0.2 µg/mL (≈ 0.449 µM) | MIC MRSA [1]: 0.8 µg/mL (≈ 1.8 µM) | MIC S. epiderm. (S. epidermidis DSM-28765): 0.4 µg/mL (≈ 0.899 µM) | MIC VRE [2]: 0.1 µg/mL (≈ 0.225 µM) | MIC E. faecium (E. faecium DSM-20477): 0.1 µg/mL (≈ 0.225 µM)

CC1=CC(C)C2C(C=CC3C(C)C=CC=CC(C)OC(=O)CC(=O)C(Cl)=C(O)C32)C1 (centres unmarked) [ChB1-2′DM, 2′Demethylchlorotonil]
IC50 in zebrafish larvae (zebrafish larvae): 33.24 µM | Selectivity Index S. aureus (zebrafish larvae): 35.8 | MIC S. aureus (S. aureus Newman): 0.4 µg/mL (≈ 0.928 µM) | MIC E. faecalis (E. faecalis ATCC-29212): 0.4 µg/mL (≈ 0.928 µM) | MIC MRSA [1]: 0.4 µg/mL (≈ 0.928 µM) | MIC S. epiderm. (S. epidermidis DSM-28765): 1.6 µg/mL (≈ 3.71 µM) | MIC VRE [2]: 0.4 µg/mL (≈ 0.928 µM) | MIC E. faecium (E. faecium DSM-20477): 0.4 µg/mL (≈ 0.928 µM)

CC1=CC(C)C2C(C=CC3C(C)C=CC=CC(C)OC(=O)C(C)(C)C(=O)C(Cl)=C(O)C32)C1 (centres unmarked) [ChB1-2′Me]
IC50 in zebrafish larvae (zebrafish larvae): 12.31 µM | Selectivity Index S. aureus (zebrafish larvae): 14.1 | Selectivity Index P. falc 3D7 (zebrafish larvae; zebrafish IC50 vs P. falciparum 3D7): 114.0 | MIC S. aureus (S. aureus Newman): 0.4 µg/mL (≈ 0.871 µM) | MIC E. faecalis (E. faecalis ATCC-29212): 0.8 µg/mL (≈ 1.74 µM) | MIC MRSA [1]: 0.8 µg/mL (≈ 1.74 µM) | MIC S. epiderm. (S. epidermidis DSM-28765): 0.8 µg/mL (≈ 1.74 µM) | MIC VRE [2]: 0.4 µg/mL (≈ 0.871 µM) | MIC E. faecium (E. faecium DSM-20477): 0.2 µg/mL (≈ 0.436 µM)

CC1=C[C@@H](C)[C@H]2[C@@H]3C(=O)C(Cl)=C([O-])[C@H](C)C(=O)O[C@@H](C)/C=C/C=C\[C@@H](C)[C@@H]3C=C[C@@H]2C1.CC1=C[C@@H](C)[C@H]2[C@@H]3C(=O)C(Cl)=C([O-])[C@H](C)C(=O)O[C@@H](C)/C=C/C=C\[C@@H](C)[C@@H]3C=C[C@@H]2C1.CC1=C[C@@H](C)[C@H]2[C@@H]3C(=O)C(Cl)=C([O-])[C@H](C)C(=O)O[C@@H](C)/C=C/C=C\[C@@H](C)[C@@H]3C=C[C@@H]2C1.[Mg+2].[Na+] [ChB2, reference compound]
MIC S. aureus (S. aureus Newman): 3.2 µg/mL | MIC E. faecalis (E. faecalis ATCC-29212): 1.6 µg/mL | MIC MRSA [1]: >3.2 µg/mL | MIC S. epiderm. (S. epidermidis DSM-28765): 3.2 µg/mL | MIC VRE [2]: 0.8 µg/mL | MIC E. faecium (E. faecium DSM-20477): 0.4 µg/mL

CC1C=CC=CC(C)C2C=CC3CC4(C)OC4C(C)C3C2C(=O)CC(=O)C(C)C(=O)O1 (centres unmarked) [Dehalogenil-Epo1]
IC50 in zebrafish larvae (zebrafish larvae): 9.85 µM | selectivity ratio ([3]; zebrafish IC50 / MIC S. aureus Newman, read-out: Selectivity Index S. aureus): 1.31 | selectivity ratio ([3]; zebrafish IC50 vs P. falciparum 3D7, read-out: Selectivity Index P. falc 3D7): 4.9 | MIC S. aureus (S. aureus Newman): 3.2 µg/mL (≈ 7.5 µM) | MIC (E. faecalis ATCC-29212): 3.2 µg/mL (≈ 7.5 µM) | MIC MRSA [1]: 3.2 µg/mL (≈ 7.5 µM) | MIC S. epiderm. (S. epidermidis DSM-28765): 3.2 µg/mL (≈ 7.5 µM) | MIC VRE [2]: 3.2 µg/mL (≈ 7.5 µM) | MIC E. faecium (E. faecium DSM-20477): 3.2 µg/mL (≈ 7.5 µM)
